Patent publication US6303612A, “Derivatives of hydroxyphenylsulfanylbenzoic and hydroxphenylsulfanylarylacetic acids” (Leciva, A.S., priority 1998, dated 2001)
Values after ≈ are worked out from the molar mass of the structure shown. Where a name gives a salt, the structure may show the parent alone. Read-outs that look alike come from different tables or passages of the source.

Assays:
[1] = tested on: LTB4 production in rat polymorphonuclear cells; assay: Ex vivo inhibition of LTB4 production (LTB4 biosynthesis); type: cell-based; conditions: for Inh. of LTB4 biosynth., %: at 30 μg (%/μg); for IC50: Rattus norvegicus, read-out: Inh. of LTB4 biosynth., IC50
Experimental: Ex vivo Inhibition of LTB4 Production The production of LTB4 was determined in rat polymorphonuclear cells from pleural exudate elicited by heat-activated rat serum (Palmer R. M. J., Salmon J. A.: Immunology 50, 65 (1983)). The cells were stimulated with the Ca ionophore A 23187 (Sigma) and incubated with various concentrations of the drugs tested. The sample containing only buffer was used for the determination of unaffected biosynthesis; the complete inhibition was measured in a sample with 100 μg of NDGA in 1 ml. LTB4 was determined in supernatant using a commercial RIA kit (Amersham).

[2] = target: LTB4 receptor (Cavia porcellus, UniProt H0VYV8); assay: LTB4 receptor binding study; conditions: 3H-LTB4, guinea-pig spleen membranes; for IC50: read-out: Inh. of LTB4 rec. binding, IC50; for inhibition at 20 µM: read-out: Inh. of LTB4 rec. binding, %
Sequence of LTB4 receptor (H0VYV8 1-348): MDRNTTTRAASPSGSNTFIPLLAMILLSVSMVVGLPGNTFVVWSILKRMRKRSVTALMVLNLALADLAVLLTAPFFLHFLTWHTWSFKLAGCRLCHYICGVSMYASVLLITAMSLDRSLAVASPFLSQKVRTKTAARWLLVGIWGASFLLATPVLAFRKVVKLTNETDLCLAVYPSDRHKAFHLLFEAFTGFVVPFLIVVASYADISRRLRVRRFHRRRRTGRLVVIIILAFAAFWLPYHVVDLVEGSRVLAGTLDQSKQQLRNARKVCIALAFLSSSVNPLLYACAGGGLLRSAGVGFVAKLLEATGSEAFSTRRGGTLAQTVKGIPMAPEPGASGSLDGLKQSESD
Experimental: LTB4 Receptor Binding Study
A slightly modified method of Cheng and coworkers (Cheng J. B. et al.: J. Pharm. Expl. Ther. 236, 126 (1986)) was used. The membrane fraction was prepared from male guinea-pig spleen; 2 mg of membranes were incubated with 0.3 nM ^3 H-LTB4 at 25° C. for 30 min in 100 μl of the incubated mixture. The nonspecific binding was determined in the presence of 0.1 μM LTB4. The membranes were filtered though Whatman GF/C paper and washed triply with buffer. The radioactivity was measured by liquid scintillation spectrometry, and the specific binding of ^3 H-LTB4 to the receptor was determined.

[3] = target: T1, LTD4 receptor (Cavia porcellus, UniProt Q2NNR5); assay: LTD4 receptor binding study; conditions: 3H-LTD4, guinea-pig lung membranes; for IC50: read-out: Inh. of LTD4 rec. binding, IC50
T1 construct: The membrane fraction was prepared from male guinea-pig lungs; from tissue; host or cells: male guinea-pig lung membranes
T1 sequence (Q2NNR5 1-340): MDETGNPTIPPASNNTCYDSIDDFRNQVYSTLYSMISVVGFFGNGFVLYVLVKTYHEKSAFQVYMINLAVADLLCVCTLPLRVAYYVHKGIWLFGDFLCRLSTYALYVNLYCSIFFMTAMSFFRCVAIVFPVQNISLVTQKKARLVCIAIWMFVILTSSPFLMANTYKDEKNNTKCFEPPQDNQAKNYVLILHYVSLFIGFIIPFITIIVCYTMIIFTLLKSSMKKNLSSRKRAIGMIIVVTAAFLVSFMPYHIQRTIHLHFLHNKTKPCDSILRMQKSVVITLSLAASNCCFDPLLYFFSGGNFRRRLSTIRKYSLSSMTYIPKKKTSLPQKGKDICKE
Experimental: LTD4 Receptor Binding Study
This study was performed according to the method of Burns and coworkers (Burns R. F. et al.: Life Sci. 33, 645 (1983)). The membrane fraction was prepared from male guinea-pig lungs, and 4 mg of this fraction were incubated with 0.4 nM ^3 H-LTD4 for 60 min at 25° C. in 100 μl of the incubated mixture. The nonspecific binding was determined in the presence of 0.1 μM LTD4. The filtration of the membranes, washing, and radioactivity measurement were as above.

[4] = tested on: peroxidation of lipids from the hepatic cells membranes; assay: Antioxidant effect in vitro; type: biochemical; conditions: at 100 μg
From the text: Antioxidant Effect in vitro
The end-product, malonic dialdehyde, was transformed to coloured complex with thiobarbituric acid and determined spectrophotometrically. The antioxidant effect was expressed in % of peroxidation inhibition in the presence of the compound tested in comparison to a control sample.

[5] = tested on: Wistar-Han rats; assay: Inhibition of carrageenan edema; type: in vivo; conditions: for inhibition in vivo at 100 mg/kg: Rattus norvegicus, read-out: CE: inhibition of carrageenan-induced edema, % of inh.
[6] = tested on: rats; assay: Inhibition of carrageenan-induced pleuritis in rats; type: in vivo; conditions: for inhibition in vivo at 100 mg/kg: Rattus norvegicus, po, 4 h
Experimental: Inhibition of Carrageenan-induced Pleuritis in Rats
(Hidaka T. J.: Pharm. Pharmacol. 38, 242 (1986) 1 ml of 0.5% carrageenan solution in saline was administered intrapleurally to experimental animals under mild ether anesthesia. Test drugs were administered in single oral dose 1 h before carrageenan injection, 4 h following the carrageenan application the rats were killed and exudate was withdrawn from opened pleural cavity. The volume of exudate, its cellularity and total cell number were determined.

[7] = tested on: male mice; assay: Inhibition of arachidonic acid-induced ear inflammation in mice; type: in vivo; conditions: for inhibition in vivo at 200 mg/kg: Mus musculus, po, 1 h
Experimental: Inhibition of Arachidonic Acid-induced Ear Inflammation in Mice (Opas E. E. et al.: J. Invest. Dermatol. 84, 253 (1985) Ear inflammation was induced in male mice by 20 μl of arachidonic acid dissolved in acetone (concentration 100 mg/ml). The mice were sacrificed 1 h after application of arachidonic acid and the ears were cut off by standard means. The other, vehicle-treated ear of the same animal served as a control. The degree of ear hyperemia and the weight of ear lobes were evaluated. Test compounds were administered orally 1 h before the induction of inflammation.

[8] = read-out: Inh. of LTD4 rec. binding, %
[9] = values with mark n: p > 0.05, read-out: Ear edema, D: edema of ear lobe, % of inh.
[10] = values with mark n: p > 0.05, read-out: Ear edema, E: hyperemia of ear lobe, % of inh.
[11] = dose 100 mg/kg, oral, values with mark n: p > 0.05, read-out: Experimental pleuritis, A: volume of exudate in pleural cavity, % of inh.
[12] = dose 100 mg/kg, oral, values with mark n: p > 0.05, read-out: Experimental pleuritis, B: number of cells, % of inh.
[13] = dose 100 mg/kg, oral, values with mark n: p > 0.05, read-out: Experimental pleuritis, C: cellularity in a volume unit, % of inh.
[14] = dose 100 mg/kg, oral, values with mark n: p > 0.05, 100 mg/kg
[15] = dose 200 mg/kg, oral, values with mark n: p > 0.05, 200 mg/kg

Structure (SMILES)	Inh. of LTB4 biosynth., % [1]	IC50 [2]	inhibition at 20 µM ([2]; at 20 μM)	IC50 [3]	inhibition at 100 µM [3, 8]	Antiox. effect, % of peroxidation inhibition [4]	inhibition in vivo at 200 mg/kg [7, 9]	inhibition in vivo at 200 mg/kg [7, 10]	inhibition in vivo at 100 mg/kg ([5]; dose 100 mg/kg)	inhibition in vivo at 100 mg/kg [6, 11]	inhibition in vivo at 100 mg/kg [6, 12]	inhibition in vivo at 100 mg/kg [6, 13]	further results
CCCc1c(OCCCOc2ccc(Sc3ccccc3C(=O)O)cc2)ccc(C(C)=O)c1O [Compound 4]	100%	13 µM	47%	10.4 µM	100%	34%	6%	2%	–	–	–	–	inhibition in vivo at 100 mg/kg [5]: 35%; inhibition in vivo at 100 mg/kg ([6]; read-out: Experimental pleuritis, A: volume of exudate in pleural cavity, % of inh.): 10%; inhibition in vivo at 100 mg/kg ([6]; read-out: Experimental pleuritis, B: number of cells, % of inh.): 35%; inhibition in vivo at 100 mg/kg ([6]; read-out: Experimental pleuritis, C: cellularity in a volume unit, % of inh.): 30%
CCCc1c(OCCCOc2cccc(Sc3ccccc3C(=O)O)c2)ccc(C(C)=O)c1O [Compound 6, 2-(3-(3-(4-Acetyl-3-hydroxy-2-propylphenoxy)propoxy)phenylsulfanyl)benzoic Acid]	73%	20.6 µM	50%	4.1 µM	100%	19%	9%	8%	22%	26%	29%	6%	–
CCCc1c(OCCCCOc2ccc(Sc3ccccc3C(=O)O)cc2)ccc(C(C)=O)c1O [Compound 7]	100%	12 µM	68%	13.6 µM	100%	16%	16%	5%	41%	14%	35%	26%	–
CCCc1c(OCCCCOc2cccc(Sc3ccc(C(=O)O)cc3[N+](=O)[O-])c2)ccc(C(C)=O)c1O [Compound 9, 4-(3-(4-(4-Acetyl-3-hydroxy-2-propylphenoxy)butoxy)phenylsulfanyl)-3-nitrobenzoic Acid]	100%	15 µM	65%	48.4 µM	53%	40%	14%	2%	19%	34%	54%	30%	–
CCCc1c(OCCCCOc2ccc(Sc3ccc([N+](=O)[O-])cc3C(=O)O)cc2)ccc(C(C)=O)c1O [Compound 10, 2-(4-(4-(4-Acetyl-3-hydroxy-2-propylphenoxy)butoxy)phenylsulfanyl)-5-nitrobenzoic Acid]	100%	13 µM	66%	15.2 µM	89%	14%	20%	2%	22%	14%	31%	19%	–
O=C(O)c1ccc(Sc2cccc(OCc3ccc4ccccc4n3)c2)cc1 [Compound 18]	100%	92.9 µM	24%	1.6 µM	100%	16%	13%	8%	10%	28%	29%	1%	IC50 [1]: 0.02 µg/mL (≈ 0.0516 µM)
O=C(O)c1ccccc1Sc1ccc(OCc2ccc3cc(Cl)ccc3n2)cc1 [Compound 21]	100%	30.1 µM	39%	1.7 µM	86%	0%	7%	3%	18%	15%	12%	4%	IC50 [1]: 0.08 µg/mL (≈ 0.19 µM)
O=C(O)c1ccccc1Sc1cccc(OCc2ccc3cc(Cl)ccc3n2)c1 [Compound 23, Tromethammonium salt of 2-(3-(6-Chloroquinoline-2-ylmethoxy)phenyl-sulfanyl)benzoic Acid]	96%	13.5 µM	–	0.1 µM	–	9%	–	–	–	–	–	–	Inh. of LTB4 biosynth., IC50 [1]: 0.96 µg/mL; Inh. of LTB4 rec. binding, % ([2]; at 20 μM): 33%; inhibition at 20 µM ([3]; at 20 μM, read-out: Inh. of LTD4 rec. binding, %): 99%; CE: inhibition of carrageenan-induced edema, % of inh. ([5]; dose 100 mg/kg): 50%; Experimental pleuritis, A: volume of exudate in pleural cavity, % of inh. [6, 14]: 17%; Experimental pleuritis, B: number of cells, % of inh. [6, 14]: 31%; Experimental pleuritis, C: cellularity in a volume unit, % of inh. [6, 14]: 17%; Ear edema, D: edema of ear lobe, % of inh. [7, 15]: 1 (s) %; Ear edema, E: hyperemia of ear lobe, % of inh. [7, 15]: 8%
CCCc1c(OCCCOc2ccc(Sc3ccccc3CC(=O)O)cc2)ccc(C(C)=O)c1O [Compound 25, 2-(4-(3-(4-Acetyl-3-hydroxy-2-propylphenoxy)propoxy)phenylsulfanyl)phenylacetic Acid]	100%	–	19%	37.5 µM	71%	23%	20%	16%	7%	4%	38%	44%	–
